Source: US20200197526A1, “REFILLABLE DRUG DELIVERY DEVICES AND METHODS OF USE THEREOF” (President and Fellows of Harvard College, priority 2014, published 2020)

Columns and labels:
[1] = system: DNA-conjugated calcium-alginate gels; experiment: In vitro binding of fluorescent oligonucleotides to DNA-conjugated calcium alginate gels (FIG. 2); settings: alginate-(T)20 calcium gel; phosphate buffer with 1 mM calcium chloride
[2] = system: MDA-MB-231 xenograft tumors; experiment: Xenograft tumor study with drug refilling; format: in vivo, J:Nu mice; settings: 120 μg doxorubicin per animal IV (FIG. 5C)
Procedure: All animal experiments were performed according to established animal protocols. Tumors were created by injecting 10^6 MDA-MB-231 cells (American Type Culture Collection, VA) combined with Matrigel (BD Biosciences, CA) to a total volume of 200 μL (100 μL PBS and 100 μL Matrigel) into the hind limbs of 8 week old J:Nu (Foxn1^nu/Foxn1^nu) mice (Jackson Labs, ME). 35 days following tumor inoculation tumors were injected with alginate gels. 20 mg/mL alginate conjugated to DNA (thioT-SH or unconjugated) was mixed with doxorubicin (1.6 mg drug per mL of gel), then crosslinked with 4% wt/v CaSO4 (1.22 M) and then 50 μL of gel were injected into tumors with a 23-gauge needle. 2, 3, 4, and 5 weeks after initial tumoral gel injection, mice were injected retro-orbitally with 100 μL 0.5% DNA-conjugated alginate carrying doxorubicin (5% oxidized alginate, thioA-SH, Dye-750, 160 μg Dox-hydrazide=120 μg Dox). Throughout the study, tumor area was measured twice per week with digital calipers in two dimensions and the product of the two dimensional values was used to approximate tumor area. […]
The breast cancer MDA-MB-231 model was chosen because it is a slow-growing tumor, widely used to test chemotherapeutic strategies. […] The ability of targeted therapy to reduce tumor size was assessed by monitoring the change in tumor size in the three days following each IV administration. […]

Compound	binding of fluorescently-labeled oligonucleotides to gel surface [1]	change in tumor size in the three days following each IV administration [2]
AAAAAAAAAAAAAAAAAAAA-FAM [(A)20]	bound to the gel surface in a sequence-specific manner	–
COc1cccc2c1C(=O)c1c(O)c3c(c(O)c1C2=O)C[C@@](O)(C(=O)CO)C[C@@H]3O[C@H]1C[C@H](N)[C@H](O)[C@H](C)O1 [doxorubicin]	–	continued to grow
TTTTTTTTTTTTTTTTTTTT-FAM [(T)20]	little binding	–
